Measurements from patent publication US20130274233A1, “MODULATORS OF HEDGEHOG SIGNALING PATHWAY” (priority 2012, published 2013).

Legend:
Hh pathway activity [1] = assay: Gli-luciferase reporter assay, Shh-induced Hh pathway activity (ShhLightII cells); type: cell-based
Source text: NIH/3T3 cells were maintained in DMEM containing 10% (v/v) calf serum, penicillin, streptomycin, and L-glutamine. HEK293, L, cos 7, and suFU−/− mouse embryonic fibroblast cells were maintained in DMEM containing 10% (v/v) fetal bovine serum, penicillin, streptomycin, and L-glutamine. Smo::EGFP, SmoM2::GFP, and Ivs::tagRFPT were cloned into pBabe to generate retroviral particles for infection. Smo::EGFP/Ivs::tagRFPT and SmoM2::GFP/Ivs::tagRFPT stable cell lines were generated through viral infection of NIH/3T3^12. A ShhLightII Gli reporter cell line was obtained from the American Type Culture Collection (ATCC) and used in luciferase reporter assays to measure Hh pathway activity. The cell line contains a stably integrated Gli-responsive Firefly luciferase reporter and a constitutive Renilla luciferase expression construct^33. Subclones expressing Smo or SmoM2 in ShhLightII cells were used for chemical epistasis analyses.
(§1) Hh activity assays were performed using ShhLightll cells, Smo/Lightll cells, SmoM2/Lightll cells, and suFU−/− mouse embryonic fibroblasts. In the suFU−/− cells, Hh activity was measured after co-transfection with Gli driven firefly luciferase and TK-renilla luciferase reporters^41. Wnt activity was measured in 293 cells co-transfected with Top-flash and TK-renilla luciferase reporters^42. Cells were cultured and treated in 96 well assay plates (Corning) and incubated with Duo-Glo luciferase substrates (Promega) to measure firefly and renilla luciferase activity sequentially using a Top Count NX Microplate Scintillation and Luminescence Counter (Perkin Elmer). The renilla luciferase signal was used to normalize the firefly reporter activity.
(§2) ShhLightII cells and SmoM2/LightII cells were cultured and treated in 96 well assay plates (Corning) and incubated with Duo-Glo luciferase substrates (Promega) to sequentially measure firefly and renilla luciferase activity. Smo, or GFP, expression plasmids were co-transfected into 3T3 cells together with a Gli-responsive firefly reporter and a TK-renilla luciferase reporter contruct to monitor effects of Smo overexpression. Co-transfection of the two reporter constructs was conducted in assays measuring Hh pathway activity in suFU−/− cells. Wnt activity was measured following co-transfection of a Top-flash and renilla luciferase reporter. In both Hh and Wnt activity assays, renilla luciferase reporter activity, or mass of protein, was used to normalize expression values. Luciferase signal was read by TopCount NX Microplate Scintillation and Luminescence Counter (Perkin Elmer). Quantitative PCR probes for Ptch1, Gli1, and β-actin were purchased from Applied Biosystems. Reactions and measurements were performed using on an Applied Biosystems 7900HT at Harvard FAS Center of System Biology. β-actin was used to normalize Ptch1 and Gil1 values.

Smo = assay: Bodipy-cyclopamine competition assay in Cos 7 cells expressing Smo; type: binding; details: for competition of Bodipy-Cyc binding to Smo: cells over-expressing Smo, 5 nM Bodipy-cyclopamine
Protocol: Cos 7 cells were transfected with a plasmid co-expressing Smo and a nuclear localized form of tagRFPT (pCIT-Smo). An empty parental construct (pCIT), and a construct that co-expresses SmoM2, were used as controls to assess specificity and background noise. Three days after transfection, cells were incubated with 5 nM Bodipy-cyclopamine, with or without other compounds for 1 hour at 37 °C. Cells were washed, fixed and stained with Hoechst. Images were collected by an Opera High Content Screen System. Bodipy fluorescence was quantified specifically for transfected cells (determined by red tagRFPT+ nucleus) using a program developed by the authors with Acapella 2.0 software. All of the images were scanned with identical microscopic settings and analyzed with the same input parameters.
Cos 7 cells were transfected with a plasmid that co-expresses Smo and a nuclear localized tagRFPT marker (pCIT-Smo). The empty parental construct (pCIT) and a construct that co-express SmoM2 were used as controls to assess specificity and background signal. Three days after transfection, cells were incubated with 5 nM Bodipy-cyclopamine, with or without additional compounds, for 1 hour at 37° C. Cells were then fixed and stained with Hoechst. Images were collected with the Opera High Content Screen System. Fluorescence values were assessed in transfected cells (red nuclei) with a program developed by the authors using Acapella 2.0 software. All of images were scanned with identical microscopic setting and analyzed with the same input parameters.

[2] = system: cerebellar granule neuron precursors (CGNPs) from P7 Ptch1+/− mice; assay: CGNP proliferation assay (pH3 positive cells); type: cell-based
Protocol: CGNP primary cells were isolated from P7 Ptch1+/− mice as previously reported^43 and immediately seeded in poly-D-lysine coated imaging plates (Greiner Bio-one). Compounds were applied 2 hours post seeding, for either 36 (FIG. 5a-b) or 72 hours (FIG. 5d-e). After completion of each experimental regimen, cells were fixed with 4% paraformaldehyde (Electron Microscopy Sciences), and stained with anti-pH3 antibody (Upstate; 1:100) followed by a secondary antibody (Invitrogen) and Hoechst (Invitrogen). Images were then collected using a confocal microscope. Cell proliferation, as marked by a pH3 signal, was quantified with an in-house program developed by the authors using Acapella 2.0 software. Identical microscopic settings were used in each analysis and identical input parameters were implemented for each experiment.
CGNP primary cells were isolated from P7 Ptch1+/− mice as previously reported^44. Cells were seeded in poly-D-lysine coated imaging plates (Greiner Bio-one), treatments were applied 2 hours thereafter and last for 36 hours. Cells then were fixed with 4% paraformaldehyde (Electron Microscopy Sciences), and stained with anti-pH3 antibody (Upstate; 1:100) followed by a secondary antibody (Invitrogen) and Hoechst (Invitrogen). Images were collected and cell proliferation quantified with a program developed by the authors utilizing Acapella 2.0 software. All of the images in each experiment were collected with identical microscopic settings and analyzed with identical input parameters.

Wnt signaling activity = assay: Wnt Top-flash reporter assay; type: cell-based; details: with or without Wnt3a
Protocol: as §1, §2

Hh pathway activity [3] = assay: Priming and withdrawal of compound followed by Shh stimulation, Gli-luciferase reporter (hypersensitivity); type: cell-based; details: for hypersensitivity to Hh pathway stimulation after priming with and removal of compound, Gli-luciferase: priming 24 hours, washout, then Shh (or SAG) stimulation
Protocol: as §1
Following the removal of drug containing medium, and extensive washing, cells were stimulated with either Hh ligand, or the direct-binding Smo agonist SAG^17,18.
as §2

SMILES | IC50 (Hh pathway activity [1]; Mus musculus, Shh Light II, 3T3/Shh-LightII cells, stimulus Shh, read-out: IC50, inhibition of Shh-induced expression of Gli-luciferase reporter) [nM] | IC50 (Smo; Cos7/Smo expression, stimulus none, read-out: IC50, competition of BODIFY-cyclopamine-Smo binding) [nM] | competition of Bodipy-Cyc binding to Smo (Smo) | Shh driven hyperactivation after removal of compound, CGNP proliferation assay ([2]; CGNPs, after removal of compound) | IC50 ([2]; Mus musculus, Neuron, pH 3, Ptch ± CGNP, stimulus Shh, read-out: IC50, Shh induced cell proliferation marked by pH 3) [nM] | effect on Shh-induced pH3 marked proliferation of CGNPs ([2]; Ptch1+/− CGNPs, Shh) | effect on Wnt pathway reporter activity (Wnt signaling activity) | hypersensitivity to Hh pathway stimulation after priming with and removal of compound, Gli-luciferase (Hh pathway activity [3]) | effect of co-stimulation on Shh-induced transcriptional response (Hh pathway activity [1]; 10 μM FA together with Shh) | effect on GDC0449 inhibition of Shh-stimulated CGNP proliferation ([2]; FA 10 μM co-administered with GDC0449) | Shh-driven CGNP proliferation ([2]; FA 10 μM with Shh) | number of proliferative pH3 positive CGNPs ([2]; FA 120 μM) | EC50 (Hh pathway activity [3]; cells treated 24 hours, compound withdrawal prior to Shh addition, read-out: EC50 of induced response to priming) [nM]
CCN(CC)c1ccc(/C=N/NC(=O)c2ccc(O)cc2)cc1 [DY131] | 2000 | 100 | effective competitor | no Shh driven hyperactivation | < 625 | dramatically decreased | absence of an inhibitory activity | no Shh driven hyperactivation |  |  |  |  | 
CC1(C)O[C@@H]2C[C@H]3[C@@H]4C[C@H](F)C5=CC(=O)C=C[C@]5(C)[C@@]4(F)[C@@H](O)C[C@]3(C)[C@]2(C(=O)CO)O1 [FA, fluocinolone acetonide] |  |  | dose-dependent competition |  |  |  | no change was detected | higher induction of pathway activity | dose-dependent enhancement | impaired | markedly enhanced | elevated | ~4000
